Drawing on patent US6384061B1, “Hydantoin compounds and methods related thereto” (LG Chemical Ltd., priority 2000, dated 2002), this text covers IC50 for ten compounds.

Structures are written as SMILES.

Assay [1] addresses T1, Geranylgeranyl transferase (Bos taurus, UniProt P29702+Q5EAD5).
T1 construct: Geranylgeranyl transferase was purified from bovine brain; from tissue; host or cells: bovine brain
The experiment in a line: Geranylgeranyl transferase inhibiting activity (geranylgeranyl pyrophosphate, Ras-CVIL substrate). It is filed as biochemical. The settings on record: geranylgeranyl transferase purified from bovine brain, read-out: GGtase IC50. The method in brief:
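Bovine-brain-purified enzyme run as in the farnesyl transferase assay, with geranylgeranyl pyrophosphate and Ras-CVIL substrate protein under similar reaction conditions.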

For assay [2], the system named is intracellular Ras farnesyl transferase, Rat2 cell line. The assay is described as follows: Intracellular Ras farnesyl transferase inhibiting activity in transformed Rat2 cells (35S-methionine labelling, Y13-259 immunoprecipitation, SDS-PAGE). It is filed as cell-based. The settings on record: Rattus norvegicus; transformed Rat2 fibroblast cell line; concentration inhibiting 50% of farnesyl binding of Ras protein; read-out: Ftase CIC50. Put shortly: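 Rat2 fibroblasts transformed with H-Ras, or with H-Ras carrying the K-Ras polybasic lysine C-terminus, were treated with compound (1% DMSO). After 4 h they were labelled for 20 h with 150 μCi/ml 35S-methionine. Lysates were immunoprecipitated with Y13-259, run on 13.5% SDS-PAGE and autoradiographed; CIC50 is the concentration halving farnesylated versus unfarnesylated Ras band intensity.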

In another assay the target is T2, Ras farnesyl transferase (Homo sapiens, UniProt P49354+P49356).
T2 construct: made in house
The experiment in a line: Ras farnesyl transferase inhibiting activity (filter-binding, tritium-farnesylpyrophosphate, Ras-CVLS substrate). It is filed as biochemical. The settings on record: recombinant Ras farnesyl transferase, 30 minutes at 37° C., read-out: Ftase IC50.

Regarding `CC1(c2cccc3ccccc23)NC(=O)N(CCCc2cncn2Cc2ccc(Br)cc2)C1=O` (stereo not drawn) [Compound 68, 3-{3-[3-(4-bromo-benzyl)-3H-imidazol-4-yl]-propyl}-5-methyl-5-naphthalen-1-yl-imidazolidin-2,4-dione], the IC50 is above 10 µM in assay [1], below 20 µM in assay [2] and 5000 nM at Ras farnesyl transferase.

`CN1C(=O)N(CCCc2cncn2Cc2ccc(Br)cc2)C(=O)C1(C)c1cccc2ccccc12` (stereo not drawn) [Compound 69, 3-{3-[3-(4-bromo-benzyl)-3H-imidazol-4-yl]-propyl}-1,5-di-methyl-5-naphthalen-1-yl-imidazolidin-2,4-dione]: the results for the IC50 (in assay [1]; in assay [2]; at Ras farnesyl transferase) were above 10 µM, below 20 µM and 300 nM, respectively.

With `CCOC(=O)CN1C(=O)N(CCCc2cncn2Cc2ccc(Br)cc2)C(=O)C1(C)c1cccc2ccccc12` (stereo not drawn) [Compound 70, (3-{3-[3-(4-bromo-benzyl)-3H-imidazol-4-yl]-propyl}-5-methyl-5-naphthalen-1-yl-2,4-dioxo-imidazolidin-1-yl)-acetic acid ethyl ester], the results for the IC50 (in assay [1]; in assay [2]; on Ras farnesyl transferase) were above 10 µM, below 20 µM and 5000 nM, respectively.

Consider `CC1(c2ccccc2)C(=O)N(CCCn2ccnc2)C(=O)N1Cc1cccc(C#N)c1` (stereo not drawn) [Compound 71, 3-[3-(3-imidazol-1-yl-propyl)-5-methyl-5-phenyl-2,4-dioxo-imidazolidin-1-ylmethyl]-benzonitrile], for which the IC50 is above 10 µM in assay [1], below 20 µM in assay [2] and 7000 nM on Ras farnesyl transferase.

Turning to `N#Cc1ccc(Cn2cncc2CN2C(=O)CN(c3cccc4ccccc34)C2=O)cc1` [Compound 72, 4-[5-(3-naphthaten-1-yl-2,5-dioxo-imidazolidin-1-ylmethyl)-imidazol-1-ylmethyl]-benzonitrile], the IC50 in assay [1] was above 10 µM; in assay [2], below 20 µM; on Ras farnesyl transferase, 20 nM.

As for `O=C1CN(c2cccc3ccccc23)C(=O)N1Cc1cncn1Cc1ccc(Cl)cc1` [Compound 73, 3-[3-(4-chloro-benzyl)-3H-imidazol-4-ylmethyl]-1-naphthalen-1-yl-imidazolidin-2,4-dione], the IC50 is above 10 µM in assay [1], below 10 µM in assay [2] and 800 nM on Ras farnesyl transferase.

On to `O=C(OCc1ccccc1)N1CCC(Cn2cncc2CN2C(=O)CN(c3cccc4ccccc34)C2=O)CC1` [Compound 74, 4-[5-(3-naphthalen-1-yl-2,5-dioxo-imidazolidin-1-ylmethyl)-imidazol-1-ylmethyl]-piperidine-1-carboxylic acid benzyl ester], for which the IC50 is above 10 µM in assay [1], below 50 µM in assay [2] and 4000 nM at Ras farnesyl transferase.

As for `N#Cc1ccc(Cn2cncc2CN2C(=O)CN(Cc3cccc4ccccc34)C2=O)cc1` [Compound 75, 4-[5-(3-naphthalen-1-ylmethyl-2,5-dioxo-imidazolidin-1-ylmethyl)-imidazol-1-ylmethyl]-benzonitrile], the figures for the IC50 (in assay [1]; in assay [2]; at Ras farnesyl transferase) were above 10 µM, above 50 µM and 30 nM, respectively.

`O=C(OCc1ccccc1)N1CCC(Cn2cncc2CN2C(=O)CN(Cc3cccc4ccccc34)C2=O)CC1` [Compound 76, 4-[5-(3-naphthalen-1-ylmethyl-2,5-dioxo-imidazolidin-1-ylmethyl)-imidazol-1-ylmethyl]-piperidine-1-carboxylic acid benzyl ester]: the IC50 in assay [1] is above 10 µM; in assay [2], above 50 µM; at Ras farnesyl transferase, 5000 nM.

Regarding `CCOC(=O)CC1C(=O)N(Cc2cncn2Cc2ccc(C#N)cc2)C(=O)N1Cc1cccc2ccccc12` (stereo not drawn) [Compound 77, {1-[3-(4-cyano-benzyl)-3H-imidazol-4-ylmethyl]-3-naphthalen-1-ylmethyl-2,5-dioxo-imidazolidin-4-yl}-acetic acid ethyl ester], the IC50 is above 10 µM in assay [1], below 10 µM in assay [2] and 50 nM at Ras farnesyl transferase.
